The test system of data set [1] is Male Sprague-Dawley rats. As to the kind of experiment: Potentiation of morphine-induced analgesia and morphine-dose sparing, paw pressure test (Example 4). The note with it: for pressure exerted on the hindpaw to obtain withdrawal: BDT001 1 mg/kg, morphine 1.5 mg/kg, mean±S.E.M., 6 animals, saline 250±7.4 g.
Protocol: (§1) Paw pressure test: Mechanical hyperalgesia was measured as the threshold to a noxious mechanical stimulus. […] Briefly, a constantly increasing pressure is applied to the rat hind paw until vocalization occurs. A Basile analgesimeter (Bioseb, France; stylus tip diameter, 1 mm) was used. A 600-g cut-off value was determined to prevent tissue damage.
To evaluate the group effects of treatments, two-way ANOVA with repeated measurements were performed followed by Dunnett's post-hoc test. Newman-Keul's test was used for multiple comparisons between groups. A difference was accepted as significant if the probability that it occurred by chance alone was less than 5% (P<0.05).
For data set [2], the system named is Male Sprague-Dawley rats. The data set is described as follows: Tolerance to morphine analgesia after chronic morphine treatment, paw pressure test (Example 5). The note with it: morphine 2 mg/kg s.c. twice daily for 4 days, D0 to D4, control animals. Format: in vivo, rat.
Protocol: Rats were kept under controlled environmental conditions (22° C., 60% relative humidity, 12 h light/dark cycle with lights on at 7:00 A.M., food and water ad libitum). To limit the stress induced by the experimental procedure, the general plan for an experimental phase was as follows: • arrival and housing of the animals: 4 days; • acclimatization of the animals for 10 days to the experimental conditions in order to avoid any possibility of measurement bias being induced by stress; • evaluation of nociceptive threshold baseline • repeated opioid administration and evaluation of treatment effects
as §1
Intrathecal injection was performed via manual lumbar puncture over one minute under anesthesia (isoflurane).
Data are presented as mean±S.E.M. To evaluate the time-course effects of treatments and individual group comparisons, one-way and two-way ANOVA with repeated measurements were performed followed by Dunnett's post hoc test. Bonferroni's test was used for multiple comparisons between groups. […]
The next data set deals with wild-type (Flt3+/+) mice. As to the kind of experiment: Mechanical pain hypersensitivity after repeated morphine, von Frey test (Example 3). The note with it: morphine 10 mg/kg twice a day for 4 days, compared to saline.
The test system of data set [3] is Male Sprague-Dawley rats. As to the kind of experiment: Morphine-induced mechanical pain hypersensitivity and latent pain sensitization, paw pressure test (Example 6). The note with it: morphine 2 mg/kg twice daily for 4 days; observed on D2, back to baseline on D9.
Protocol: Rats were kept under controlled environmental conditions (22° C., 60% relative humidity, 12 h light/dark cycle with lights on at 7:00 A.M., food and water ad libitum). To limit the stress induced by the experimental procedure, the general plan for an experimental phase was as follows: • arrival and housing of the animals: 4 days; • acclimation of the animals for 10 days to the experimental conditions in order to avoid any possibility of measurement bias being induced by stress; • evaluation of nociceptive threshold baseline • repeated opioid administration and evaluation of treatment effects
Mechanical hyperalgesia was measured as the threshold to a noxious mechanical stimulus. […] Briefly, a constantly increasing pressure is applied to the rat hind paw until vocalization occurs. A Basile analgesimeter (Bioseb, France; stylus tip diameter, 1 mm) was used. A 600-g cut-off value was determined to prevent tissue damage.
(§2) Data are presented as mean±S.E.M. To evaluate the time-course effects of treatments and individual group comparisons, one-way and two-way ANOVA with repeated measurements were performed followed by Dunnett's post hoc test. Bonferroni's test was used for multiple comparisons between groups. A difference was accepted as significant if the probability that it occurred by chance alone was less than 5% (P<0.05).

SMILES strings stand for the structures.

Protocol for wild-type (Flt3+/+) mice: Experiments were performed in male mice carrying a homozygous deletion of Flt3 (F1t3KO mice)^24 and their littermates (WT) weighing 25-30 g. […] Animals were maintained in a climate-controlled room on a 12 h light/dark cycle and allowed access to food and water ad libitum. To limit the stress induced by the experimental procedure, the general plan for an experimental phase was as follows: • arrival and housing of the animals: 4 days; • evaluation of nociceptive threshold baseline; • repeated opioid administration and evaluation of treatment effects
Filaments were applied perpendicularly to the plantar surface of the paw. The 50% paw withdrawal threshold was determined in grams by the Dixon nonparametric test. The protocol was repeated until three changes in behavior occurred.
as §2

As to `O=C(Nc1cc(Cl)ccc1O)c1cccc(S(=O)(=O)N2CCCCC2)c1` [BDT001, N-(5-chloro-2-hydroxyphenyl)-3-(piperidin-1-ylsulfonyl)benzamide], in the data set with Male Sprague-Dawley rats [1] (30 min after administration), the “pressure exerted on the hindpaw to obtain withdrawal” value is 252.5 ± 9.0 g. The morphine-dose sparing effect in the data set on Male Sprague-Dawley rats [1] (BDT001 1 mg/kg i.p.) was determined as 30%. Also, the analgesia by itself entry with Male Sprague-Dawley rats [1] (BDT001 1 mg/kg i.p. alone, 30 min after administration) is “did not produced analgesia by itself”.
Consider `CN1CC[C@]23c4c5ccc(O)c4O[C@H]2[C@@H](O)C=C[C@H]3[C@H]1C5` [morphine], for which the “morphine-induced analgesia (percentage of MPE) on repeated morphine administration” value in the data set on Male Sprague-Dawley rats [2] was “induced a progressive decrease in morphine-induced analgesia”. Moreover, the “nociceptive threshold (mechanical pain hypersensitivity) after repeated morphine” value with wild-type (Flt3+/+) mice is reported as “induced a decrease in the nociceptive threshold”. Further, in the data set on Male Sprague-Dawley rats [3], the “nociceptive threshold (pain hypersensitivity) in morphine-treated animals” value was “significant decrease in the nociceptive threshold”. Besides, in the data set on Male Sprague-Dawley rats [1] (30 min after administration), the “pressure exerted on the hindpaw to obtain withdrawal” value came out at 502.5 ± 20.0 g. Further, in the data set on Male Sprague-Dawley rats [1] (morphine 0.5, 1, 1.5 or 2 mg/kg s.c. alone), the “morphine-induced analgesia (area under the curve)” value was “induced analgesia in a dose-dependent manner”.

Values taken from patent publication US20200171022A1, “FLT3 INHIBITORS FOR IMPROVING PAIN TREATMENTS BY OPIOIDS” (INSERM (Institut National de la Santé et da la Recherche …, priority 2017, published 2020).
